Assay results: patent US20230117034A1, “PYRAZOLOTRIAZINES” (Bayer Aktiengesellschaft, priority 2019, published 2023)

Columns and labels:
[1] = biological target: CDK12/CycK (Homo sapiens, UniProt Q9NYV4); assay: CDK12/CycK high ATP kinase assay (TR-FRET, 2 mM ATP); format: biochemical; conditions: 2 mM ATP (high ATP); median; read-out: CDK12/CyclinK, 2 mM ATP (high ATP), IC50-[mol/l] (median)
Summary of the method: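 His-tagged human CDK12/CycK (~0.75 nM) pre-incubated 15 min with compound, then 60 min at 22 °C with 2 mM ATP and 1 µM biotinylated peptide (HEPES pH 7.5, 20 mM MgCl2). EDTA stop; phospho-Ser62 antibody/Eu anti-rabbit and streptavidin-XL665 TR-FRET, 665/620 nm ratio normalised to give IC50.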

[2] = test system: CAL-120, human breast adenocarcinoma cells; assay: Proliferation assay CAL-120 (crystal violet, 4 days); format: cell-based; conditions: Homo sapiens, CAL-120, 96 h, CAL-120 cells, median, read-out: Prolif-CAL-120, IC50-[mol/l] (median)
Summary of the method: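 Following a 24 h attachment in 10% fetal calf serum medium, cells receive test substance over 0.01-10 µmol/L for 4 days. Dye retained by fixed cells is eluted and read at 595 nm; cell number change is referenced to day-0 and untreated wells.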

Chain of CDK12/CycK (Q9NYV4 with tags, fused parts or gaps): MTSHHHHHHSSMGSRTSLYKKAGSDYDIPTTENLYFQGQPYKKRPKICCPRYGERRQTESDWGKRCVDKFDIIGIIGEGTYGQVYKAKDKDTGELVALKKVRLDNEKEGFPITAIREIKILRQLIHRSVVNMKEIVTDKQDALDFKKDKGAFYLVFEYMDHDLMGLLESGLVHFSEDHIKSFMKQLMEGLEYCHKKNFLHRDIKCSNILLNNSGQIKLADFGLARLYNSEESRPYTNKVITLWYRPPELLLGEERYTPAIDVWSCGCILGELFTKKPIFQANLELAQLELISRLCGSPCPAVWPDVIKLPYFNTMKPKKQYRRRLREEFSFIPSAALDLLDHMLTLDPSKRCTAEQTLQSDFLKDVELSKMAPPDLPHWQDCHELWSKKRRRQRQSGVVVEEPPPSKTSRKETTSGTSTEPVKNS
Chain of CDK12/CycK (O75909 1-300 partner limits assumed): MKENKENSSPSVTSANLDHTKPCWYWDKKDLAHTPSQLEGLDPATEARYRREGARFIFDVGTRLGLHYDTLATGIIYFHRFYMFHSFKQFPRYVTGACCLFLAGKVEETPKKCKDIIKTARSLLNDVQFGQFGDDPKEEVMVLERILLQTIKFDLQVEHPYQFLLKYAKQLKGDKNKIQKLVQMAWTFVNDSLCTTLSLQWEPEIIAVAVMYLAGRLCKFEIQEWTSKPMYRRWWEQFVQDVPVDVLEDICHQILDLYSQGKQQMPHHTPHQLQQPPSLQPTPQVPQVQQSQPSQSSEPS

Structure (SMILES) | IC50 [1] | IC50 [2]
OC[C@@H]1CCCCN1c1nc(NCc2nc3c(F)cccc3[nH]2)n2ncc(C3CC3)c2n1 [Example 189, [(2S)-1-(8-cyclopropyl-4-{[(4-fluoro-1H-benzimidazol-2-yl)methyl]amino}pyrazolo[1,5-a][1,3,5]triazin-2-yl)piperidin-2-yl]methanol] | 0.0109 µM | 0.00467 µM
Brc1cnn2c(NCc3nc4ccccc4[nH]3)nc(N3CCC4(CCCN4)C3)nc12 (stereo not shown) [Example 215, N-(1H-benzimidazol-2-ylmethyl)-8-bromo-2-(1,7-diazaspiro[4.4]nonan-7-yl)pyrazolo[1,5-a][1,3,5]triazin-4-amine] | > 20 µM | 0.0343 µM
